Reference: patent publication US6444617B1, “Fused-heterocycle dicarboxylic acid diamide derivatives or salts thereof, herbicide and usage thereof” (Nihon Nohyaku Co., Ltd., priority 1998, dated 2002)

Legend:
Format in all cases: in vivo
[1] = tested on: barnyard grass (Echinochloa crus-galli Beauv.); assay: Test Example 1: herbicidal effect on paddy field weeds before emergence; conditions: Dosage 5 kg/ha
Summary of the method: (§1)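 Grading reflects percent control relative to untreated plots, evaluated three weeks post-application. Treatment was a soil application of compound solution, predetermined dose, made to paddy-state pots before weed seeds germinated.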

[2] = tested on: bulrush (Scirpus juncoides Roxb.); assay: as above; conditions: Dosage 5 kg/ha
Summary of the method: as §1

[3] = tested on: barnyard grass (Echinochloa crus-galli Beauv.); assay: Test Example 2: herbicidal effect on paddy field weeds after emergence; conditions: Dosage 5 kg/ha; one-leaved stage; 21 days after treatment
Summary of the method: (§2)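 Weeds were sown in 1/10000 are pots of soil flooded to paddy conditions and grown to the one-leaf stage, then the soil was treated with a solution of compound at a predetermined dosage.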

[4] = tested on: bulrush (Scirpus juncoides Roxb.); assay: as above; conditions: Dosage 5 kg/ha; one-leaved stage; 21 days after treatment
Summary of the method: as §2

[5] = tested on: monochoria (Monochoria vaginalis Presl); assay: as above; conditions: Dosage 5 kg/ha; one-leaved stage; 21 days after treatment
Summary of the method: as §2

[6] = tested on: barnyard grass (Echinochloa crus-galli Beauv.), Ec; assay: Test Example 3: herbicidal effect on upland weeds before emergence; conditions: dosage 5 kg/ha
Summary of the method: (§3)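 Test compound, formulated as a liquid at a fixed concentration, is sprayed before weed emergence. Two weeks later, kill rate is derived and herbicidal activity is rated.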

[7] = tested on: bird's eye speedwell (Veronica persica Poir.), Vp; assay: as above; conditions: dosage 5 kg/ha
Summary of the method: as §3

[8] = tested on: cleavers (Galium aparine L.), Ga; assay: as above; conditions: dosage 5 kg/ha
Summary of the method: as §3

[9] = tested on: cocklebur (Xanthium strumarium L.), Xs; assay: as above; conditions: dosage 5 kg/ha
Summary of the method: as §3

[10] = tested on: forxtail grass (Alopecurus aequalis var. amurensis Ohwi), Am; assay: as above; conditions: foxtail grass, dosage 5 kg/ha
Summary of the method: as §3

[11] = tested on: velvetleaf (Abutilon theophtasti L.), At; assay: as above; conditions: dosage 5 kg/ha
Summary of the method: as §3

[12] = tested on: soybean plant (So); assay: Test Example 3: phytotoxicity to upland crop plants, treatment before emergence; conditions: dosage 5 kg/ha
Summary of the method: (§4)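 Pre-emergence spray, test compound at prescribed conc. in liquid formulation; crop injury (soybean, wheat) read at day 14, scored by criterion.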

[13] = tested on: wheat (Wh); assay: as above; conditions: dosage 5 kg/ha
Summary of the method: as §4

[14] = tested on: barnyard grass (Echinochloa crus-galli Beauv.), Ec; assay: Test Example 4: herbicidal effect on upland weeds after emergence; conditions: dosage 5 kg/ha; sprayed after emergence; judged 14 days after treatment
Summary of the method: (§5)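 Post-emergence foliar spray, compound at prescribed concentration, applied at defined leaf stages; weeds plus soybean/wheat grown in soil vats. Read-out: weed-killing rate and crop injury, 14 d post-treatment.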

[15] = tested on: bird's eye speedwell (Veronica persica Poir.), Vp; assay: as above; conditions: dosage 5 kg/ha; sprayed after emergence; judged 14 days after treatment
Summary of the method: as §5

[16] = tested on: cleavers (Galium aparine L.), Ga; assay: as above; conditions: dosage 5 kg/ha; sprayed after emergence; judged 14 days after treatment
Summary of the method: as §5

[17] = tested on: cocklebur (Xanthium strumarium L.), Xs; assay: as above; conditions: dosage 5 kg/ha; sprayed after emergence; judged 14 days after treatment
Summary of the method: as §5

[18] = tested on: forxtail grass (Alopecurus aequalis var. amurensis Ohwi), Am; assay: as above; conditions: dosage 5 kg/ha; sprayed after emergence; judged 14 days after treatment
Summary of the method: as §5

[19] = tested on: velvetleaf (Abutilon theophtasti L.), At; assay: as above; conditions: dosage 5 kg/ha; sprayed after emergence; judged 14 days after treatment
Summary of the method: as §5

[20] = tested on: soybean plant; assay: Test Example 4: phytotoxicity to upland crop plants, treatment after emergence; conditions: dosage 5 kg/ha, sprayed after emergence, judged 14 days after treatment
Summary of the method: (§6)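 Seeds sown in soil and covered. Plants raised to specified leaf stages. Agent with test compound at a prescribed concentration sprayed. Herbicidal effect and crop damage scored after 14 days as weed-killing rate.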

[21] = tested on: wheat; assay: as above; conditions: dosage 5 kg/ha, sprayed after emergence, judged 14 days after treatment
Summary of the method: as §6

Cc1c(Cl)cccc1NC(=O)c1nc2ccccc2nc1C(=O)NC1CCCC1 [compound 1327]
Pre-emergence treatment Barnyard grass (herbicidal effect) [1]: 5 (Weed-killing rate is 100%.)
Pre-emergence treatment Bulrush (herbicidal effect) [2]: 4 (Weed-killing rate is 90-99%.)
Post-emergence treatment Barnyard grass (herbicidal effect) [3]: 4 (Weed-killing rate is 90-99%.)
Post-emergence treatment Bulrush (herbicidal effect) [4]: 4 (Weed-killing rate is 90-99%.)
Post-emergence treatment Monochoria (herbicidal effect) [5]: 5 (Weed-killing rate is 100%.)
Herbicidal effect Ec [6]: 5 (Weed-killing rate is 100%.)
Herbicidal effect Vp [7]: 5 (Weed-killing rate is 100%.)
Herbicidal effect Ga [8]: 4 (Weed-killing rate is 90-99%.)
Herbicidal effect Xs [9]: 4 (Weed-killing rate is 90-99%.)
Herbicidal effect Am [10]: 5 (Weed-killing rate is 100%.)
Herbicidal effect At [11]: 5 (Weed-killing rate is 100%.)
Phytotoxicity So [12]: 3 (Crop-killing rate is 70-89%.)
Phytotoxicity Wh [13]: 5 (Crop-killing rate is 100%.)
Herbicidal effect Ec [14]: 5 (Weed-killing rate is 100%.)
Herbicidal effect Vp [15]: 5 (Weed-killing rate is 100%.)
Herbicidal effect Ga [16]: 5 (Weed-killing rate is 100%.)
Herbicidal effect Xs [17]: 4 (Weed-killing rate is 90-99%.)
Herbicidal effect Am [18]: 5 (Weed-killing rate is 100%.)
Herbicidal effect At [19]: 5 (Weed-killing rate is 100%.)
Phytotoxicity So [20]: 3 (Crop-killing rate is 70-89%.)
Phytotoxicity Wh [21]: 4 (Crop-killing rate is 90-99%.)
